Results on twelve compounds are retold here after patent publication US7087641B2, “4β-1″-[(2″-substituted benzoyl) anilino]podophyllotoxin analogues useful as anticancer agents” (Council of Scientific & Industrial Research, priority 2002, dated 2006).

The assay deals with tumor cell lines. The experiment in a line: Cytotoxicity (in vitro). The class given is cell-based. The conditions noted are these: range of GI50 values, cell lines not named. From the text:
A program was initiated in the laboratory for the design and synthesis of new 4β-aryl amino substituted podophyllotoxin congeners with enhanced antitumour activity and/or activity against etoposide resistant tumor cell lines. In these efforts new 4β-1″-[{2″-benzoyl substituted}anilino] podophyllotoxin derivatives have been synthesized and evaluated for their cytotoxicity and anticancer potency. […] The synthesis of these compounds has been carried out as described in the scheme using podophyllotoxin obtained from the resin. The cytotoxicity of 4a–4p values have been illustrated in the Table 1.

As to `COc1cc([C@@H]2c3cc4c(cc3[C@@H](Nc3ccccc3C(=O)c3ccccc3)[C@@H]3COC(=O)[C@H]23)OCO4)cc(OC)c1OC` [4a, 4β-1″-[2″-(Benzoyl)anilino]-4-desoxypodophyllotoxin], the GI50 (usually the concentration that inhibits growth by half) was in the range of 40 to 500 nM.

`COc1cc([C@@H]2c3cc4c(cc3[C@@H](Nc3ccccc3C(=O)c3ccccc3)[C@@H]3COC(=O)[C@H]23)OCO4)cc(OC)c1O` [4b, 4′-O-Demethyl-4β-1″-[2″-(benzoyl)anilino]-4-desoxypodophyllotoxin] registered a 50% growth inhibitory concentration (GI50) of 15000 to 382000 nM.

On to `COc1cc([C@@H]2c3cc4c(cc3[C@@H](Nc3ccc(Cl)cc3C(=O)c3ccccc3Cl)[C@@H]3COC(=O)[C@H]23)OCO4)cc(OC)c1OC` [4c, 4β-1″-[2″-(2-Chlorobenzoyl)-4″-chloroanilino]-4-desoxypodophyllotoxin], for which the GI50 is 59 to 876 nM.

`COc1cc(C2c3cc4c(cc3C(Nc3ccc(Cl)cc3C(=O)c3ccccc3Cl)C3COC(=O)C23)OCO4)cc(OC)c1O` (stereo not drawn) [4d, 4′-O-Demethyl-4β-1″-[2″-(2-Chlorobenzoyl)-4″-chloroanilino]-4-desoxypodo-phyllotoxin]: the GI50 was in the range of 100 to 240 nM.

In the case of `COc1cc([C@@H]2c3cc4c(cc3[C@@H](Nc3ccc([N+](=O)[O-])cc3C(=O)c3ccccc3)[C@@H]3COC(=O)[C@H]23)OCO4)cc(OC)c1O` [4f], the GI50 was in the range of 10 to 240 nM.

As to `COc1cc(C2c3cc4c(cc3C(Nc3ccc(Cl)cc3C(=O)c3ccccc3)C3COC(=O)C23)OCO4)cc(OC)c1OC` (stereo not drawn) [4g, 4β-1″-[2″-(Benzoyl)-4″-chloroanilino]-4-desoxypodophyllotoxin], the concentration for 50% growth inhibition (GI50) is 70 to 1100 nM.

In the case of `COc1cc(C2c3cc4c(cc3C(Nc3ccc(Cl)cc3C(=O)c3ccccc3)C3COC(=O)C23)OCO4)cc(OC)c1O` (stereo not drawn) [4h], the GI50 was in the range of 14000 to 270000 nM.

`COc1cc([C@@H]2c3cc4c(cc3[C@@H](Nc3ccc(Cl)cc3C(=O)c3ccccc3F)[C@@H]3COC(=O)[C@H]23)OCO4)cc(OC)c1OC` [4i, 4β-1″-[2″-(2-Fluorobenzoyl)-4″-chloroanilino]-4-desoxypodophyllotoxin] gave a GI50 of 140 to 300 nM.

Consider `COc1cc(C2c3cc4c(cc3C(Nc3ccc(Cl)cc3C(=O)c3ccccc3F)C3COC(=O)C23)OCO4)cc(OC)c1O` (stereo not drawn) [4j, 4′-O-Demethyl-4β-1″-[2″-(2-Fluorobenzoyl)-4″-chloroanilino]-4-desoxypodo-phyllotoxin], for which the GI50 fell in the range of 4 to 100 nM.

On to `COc1cc([C@@H]2c3cc4c(cc3[C@@H](Nc3cccc(C(=O)c5ccccc5)c3)[C@@H]3COC(=O)[C@H]23)OCO4)cc(OC)c1OC` [4k, 4β-1″-[3″-(Benzoyl)anilino]-4-desoxypodophyllotoxin], for which the GI50 is 100 to 1000 nM.

`COc1cc([C@@H]2c3cc4c(cc3[C@@H](Nc3cccc(C(=O)c5ccccc5)c3)[C@@H]3COC(=O)[C@H]23)OCO4)cc(OC)c1O` [4l, 4′-O-Demethyl-4β-1″-[3″-(benzoyl)anilino]-4-desoxypodophyllotoxin] returned a GI50 of 2000 to 16000 nM.

`COc1cc(C2c3cc4c(cc3C(Nc3ccc(C(=O)c5ccccc5)cc3[N+](=O)[O-])C3COC(=O)C23)OCO4)cc(OC)c1O` (stereo not drawn) [4n] gave a GI50 of 10 to 240 nM.
